Experimental data as given in PubChem BioAssay (NCI).
Where “and” joins values, the source holds several entries; their conditions need not be identical. Equal values may be shown once.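 Values below derive from 48-hour exposures of cells grown in 96-well plates, with endpoints linearly interpolated between the two concentrations bracketing the appropriate inhibition level. GI50: concentration for 50% inhibition of growth. At the TGI there is no net growth.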

Legend:
Assay in all cases: NCI-60 cell line screen, 48 h
786-0 renal = test system: 786-0 renal
A498 renal = test system: A498 renal
A549 NSCLC = test system: A549 NSCLC
ACHN renal = test system: ACHN renal
BT-549 breast = test system: BT-549 breast
CAKI-1 renal = test system: CAKI-1 renal
CCRF-CEM leukemia = test system: CCRF-CEM leukemia
COLO 205 colon = test system: COLO 205 colon
DU-145 prostate = test system: DU-145 prostate
EKVX NSCLC = test system: EKVX NSCLC
HCC-2998 colon = test system: HCC-2998 colon
HCT-116 colon = test system: HCT-116 colon
HCT-15 colon = test system: HCT-15 colon
HL-60(TB) leukemia = test system: HL-60(TB) leukemia
HOP-62 NSCLC = test system: HOP-62 NSCLC
HOP-92 NSCLC = test system: HOP-92 NSCLC
HS 578T breast = test system: HS 578T breast
HT29 colon = test system: HT29 colon
IGROV1 ovarian = test system: IGROV1 ovarian
K-562 leukemia = test system: K-562 leukemia
KM12 colon = test system: KM12 colon
LOX IMVI melanoma = test system: LOX IMVI melanoma
M14 melanoma = test system: M14 melanoma
MALME-3M melanoma = test system: MALME-3M melanoma
MCF7 breast = test system: MCF7 breast
MDA-MB-231 breast = test system: MDA-MB-231 breast
MDA-MB-435 = test system: MDA-MB-435
MOLT-4 leukemia = test system: MOLT-4 leukemia
NCI-H226 lung = test system: NCI-H226 lung
NCI-H23 lung = test system: NCI-H23 lung
NCI-H460 lung = test system: NCI-H460 lung
NCI-H522 lung = test system: NCI-H522 lung
NCI/ADR-RES ovarian = test system: NCI/ADR-RES ovarian
OVCAR-3 ovarian = test system: OVCAR-3 ovarian
OVCAR-4 ovarian = test system: OVCAR-4 ovarian
OVCAR-5 ovarian = test system: OVCAR-5 ovarian
OVCAR-8 ovarian = test system: OVCAR-8 ovarian
PC-3 prostate = test system: PC-3 prostate
RPMI-8226 leukemia = test system: RPMI-8226 leukemia
RXF 393 renal = test system: RXF 393 renal
SF-268 CNS = test system: SF-268 CNS
SF-295 CNS = test system: SF-295 CNS
SF-539 CNS = test system: SF-539 CNS
SK-MEL-2 melanoma = test system: SK-MEL-2 melanoma
SK-MEL-28 melanoma = test system: SK-MEL-28 melanoma
SK-MEL-5 melanoma = test system: SK-MEL-5 melanoma
SK-OV-3 ovarian = test system: SK-OV-3 ovarian
SN12C renal = test system: SN12C renal
SNB-19 CNS = test system: SNB-19 CNS
SNB-75 CNS = test system: SNB-75 CNS
SW-620 colon = test system: SW-620 colon
T-47D breast = test system: T-47D breast
TK-10 renal = test system: TK-10 renal
U251 CNS = test system: U251 CNS
UACC-257 melanoma = test system: UACC-257 melanoma
UACC-62 melanoma = test system: UACC-62 melanoma
UO-31 renal = test system: UO-31 renal

`O=C(Cc1ccc(-c2ccc(OCCN3CCOCC3)cc2)cn1)NCc1ccccc1` was tested. Which GI50 (786-0 renal) did it give?
Its GI50 is 67.5 nM and 85.7 nM.

What about the TGI (786-0 renal) of the same compound?
Its TGI is greater than 100000 nM.

And the GI50 (A498 renal)?
The GI50 was 24.7 nM and 27.7 nM.

And the TGI (A498 renal)?
The TGI was 331 nM and 82.2 nM.

What about the GI50 (A549 NSCLC) of the same compound?
The GI50 was 40.5 nM and 53.7 nM.

And the TGI (A549 NSCLC)?
Its TGI is greater than 100000 nM.

And the GI50 (ACHN renal)?
The GI50 was 85.7 nM and 81.1 nM.

And the TGI (ACHN renal)?
The TGI was greater than 100000 nM.

What about the GI50 (BT-549 breast) of the same compound?
Its GI50 is 159 nM and 76.7 nM.

What about the GI50 (CAKI-1 renal) of the same compound?
The GI50 was 70.3 nM and 50.6 nM.

And the TGI (CAKI-1 renal)?
Its TGI is greater than 100000 nM.

And the GI50 (CCRF-CEM leukemia)?
Its GI50 is 39.7 nM and 43.3 nM.

What about the TGI (CCRF-CEM leukemia) of the same compound?
Its TGI is greater than 100000 nM.

And the GI50 (COLO 205 colon)?
The GI50 was 29.1 nM and 36.1 nM.

And the TGI (COLO 205 colon)?
Its TGI is 85.8 nM and 632 nM.

What about the GI50 (DU-145 prostate) of the same compound?
Its GI50 is 32.4 nM and 38.7 nM.

What about the TGI (EKVX NSCLC) of the same compound?
The TGI was greater than 100000 nM.

What about the GI50 (HCC-2998 colon) of the same compound?
Its GI50 is 31.6 nM and 166 nM.

What about the GI50 (HCT-116 colon) of the same compound?
The GI50 was 37.3 nM and 39.9 nM.

What about the TGI (HCT-116 colon) of the same compound?
Its TGI is greater than 100000 nM.

What about the GI50 (HCT-15 colon) of the same compound?
The GI50 was 29.4 nM and 38.7 nM.

What about the TGI (HCT-15 colon) of the same compound?
Its TGI is greater than 100000 nM.

What about the GI50 (HL-60(TB) leukemia) of the same compound?
Its GI50 is 29.4 nM and 30.9 nM.

What about the GI50 (HOP-62 NSCLC) of the same compound?
Its GI50 is 37.2 nM and 66 nM.

What about the TGI (HOP-62 NSCLC) of the same compound?
Its TGI is greater than 88400 nM.

And the GI50 (HOP-92 NSCLC)?
The GI50 was 54.3 nM and 353 nM.

What about the TGI (HOP-92 NSCLC) of the same compound?
The TGI was 8590 nM and > 7160 nM.

And the GI50 (HS 578T breast)?
The GI50 was 38.1 nM and 28.4 nM.

What about the TGI (HS 578T breast) of the same compound?
The TGI was greater than 100000 nM.

What about the GI50 (HT29 colon) of the same compound?
The GI50 was 34.3 nM and 34.2 nM.

And the TGI (HT29 colon)?
The TGI was greater than 37600 nM.

And the GI50 (IGROV1 ovarian)?
The GI50 was 94.4 nM and 70.8 nM.

What about the TGI (IGROV1 ovarian) of the same compound?
Its TGI is greater than 100000 nM.

What about the GI50 (K-562 leukemia) of the same compound?
The GI50 was 25.5 nM and 26.4 nM.

And the TGI (K-562 leukemia)?
Its TGI is greater than 100000 nM.

And the GI50 (KM12 colon)?
The GI50 was 32 nM and 38.7 nM.

What about the TGI (KM12 colon) of the same compound?
Its TGI is greater than 7880 nM.

What about the GI50 (LOX IMVI melanoma) of the same compound?
Its GI50 is 61.2 nM and 63.6 nM.

And the TGI (LOX IMVI melanoma)?
Its TGI is greater than 100000 nM.

What about the GI50 (M14 melanoma) of the same compound?
Its GI50 is 28.5 nM.

And the TGI (M14 melanoma)?
The TGI was 1760 nM.

And the GI50 (MALME-3M melanoma)?
The GI50 was 150 nM.

What about the TGI (MALME-3M melanoma) of the same compound?
The TGI was greater than 100000 nM.

What about the GI50 (MCF7 breast) of the same compound?
Its GI50 is < 16.4 nM and 35.6 nM.

What about the TGI (MCF7 breast) of the same compound?
The TGI was greater than 100000 nM.

What about the GI50 (MDA-MB-231 breast) of the same compound?
Its GI50 is 57.7 nM and 83.3 nM.

And the TGI (MDA-MB-231 breast)?
Its TGI is greater than 100000 nM.

And the GI50 (MDA-MB-435)?
Its GI50 is 16.2 nM.

And the TGI (MDA-MB-435)?
The TGI was 39.2 nM.

And the GI50 (MOLT-4 leukemia)?
The GI50 was 99.9 nM and 68.5 nM.

What about the TGI (MOLT-4 leukemia) of the same compound?
Its TGI is greater than 100000 nM.

And the GI50 (NCI-H226 lung)?
Its GI50 is 244 nM and 112 nM.

What about the TGI (NCI-H226 lung) of the same compound?
The TGI was greater than 100000 nM.

And the GI50 (NCI-H23 lung)?
The GI50 was 45.8 nM and 49.3 nM.

And the TGI (NCI-H23 lung)?
The TGI was greater than 100000 nM.

What about the GI50 (NCI-H460 lung) of the same compound?
Its GI50 is 35.5 nM and 37.1 nM.

What about the TGI (NCI-H460 lung) of the same compound?
The TGI was 16200 nM and > 10000 nM.

And the GI50 (NCI-H522 lung)?
Its GI50 is 22.3 nM and 24.2 nM.

What about the TGI (NCI-H522 lung) of the same compound?
The TGI was 83.1 nM.

What about the GI50 (NCI/ADR-RES ovarian) of the same compound?
Its GI50 is 33.4 nM and 34.1 nM.

And the TGI (NCI/ADR-RES ovarian)?
The TGI was greater than 100000 nM.

What about the GI50 (OVCAR-3 ovarian) of the same compound?
The GI50 was 35.2 nM.

And the TGI (OVCAR-4 ovarian)?
The TGI was greater than 100000 nM.

What about the GI50 (OVCAR-5 ovarian) of the same compound?
Its GI50 is 60.5 nM and 119 nM.

And the TGI (OVCAR-5 ovarian)?
The TGI was greater than 100000 nM.

And the GI50 (OVCAR-8 ovarian)?
The GI50 was 46.6 nM and 49.3 nM.

And the TGI (OVCAR-8 ovarian)?
Its TGI is greater than 36200 nM.

What about the GI50 (PC-3 prostate) of the same compound?
Its GI50 is 44.6 nM and 45.6 nM.

And the TGI (PC-3 prostate)?
The TGI was greater than 100000 nM.

What about the GI50 (RPMI-8226 leukemia) of the same compound?
Its GI50 is 42.7 nM and 35.8 nM.

What about the TGI (RPMI-8226 leukemia) of the same compound?
Its TGI is greater than 50200 nM.

And the GI50 (RXF 393 renal)?
Its GI50 is 10.8 nM.

And the TGI (RXF 393 renal)?
The TGI was 49.7 nM.

And the GI50 (SF-268 CNS)?
Its GI50 is 83 nM and 332 nM.

What about the TGI (SF-268 CNS) of the same compound?
The TGI was greater than 100000 nM.

What about the GI50 (SF-295 CNS) of the same compound?
The GI50 was 29.6 nM and 34.7 nM.

What about the TGI (SF-295 CNS) of the same compound?
The TGI was greater than 100000 nM.

What about the GI50 (SF-539 CNS) of the same compound?
Its GI50 is 28.3 nM and 30.1 nM.

And the GI50 (SK-MEL-2 melanoma)?
The GI50 was 105 nM and 60 nM.

What about the TGI (SK-MEL-2 melanoma) of the same compound?
Its TGI is greater than 100000 nM.

What about the GI50 (SK-MEL-28 melanoma) of the same compound?
The GI50 was 46.2 nM and 211 nM.

What about the TGI (SK-MEL-28 melanoma) of the same compound?
Its TGI is greater than 100000 nM.

And the GI50 (SK-MEL-5 melanoma)?
Its GI50 is 28.6 nM and 39.9 nM.

What about the TGI (SK-MEL-5 melanoma) of the same compound?
The TGI was 220 nM and 1250 nM.

What about the GI50 (SK-OV-3 ovarian) of the same compound?
The GI50 was 30.3 nM and 54.9 nM.

What about the TGI (SK-OV-3 ovarian) of the same compound?
Its TGI is 7010 nM and > 10000 nM.

What about the GI50 (SN12C renal) of the same compound?
Its GI50 is 84.5 nM and 61.1 nM.

And the TGI (SN12C renal)?
Its TGI is greater than 100000 nM.

And the GI50 (SNB-19 CNS)?
Its GI50 is 52.8 nM and 44.8 nM.

What about the TGI (SNB-19 CNS) of the same compound?
Its TGI is greater than 100000 nM.

And the GI50 (SNB-75 CNS)?
The GI50 was 33.3 nM and 21.8 nM.

What about the TGI (SNB-75 CNS) of the same compound?
The TGI was greater than 100000 nM.

And the GI50 (SW-620 colon)?
Its GI50 is 37.6 nM and 38.8 nM.

What about the TGI (SW-620 colon) of the same compound?
The TGI was greater than 100000 nM.

What about the TGI (T-47D breast) of the same compound?
Its TGI is 55900 nM and > 10000 nM.

And the TGI (TK-10 renal)?
The TGI was greater than 100000 nM.

What about the GI50 (U251 CNS) of the same compound?
The GI50 was 41.7 nM and 37.7 nM.

And the TGI (U251 CNS)?
The TGI was greater than 100000 nM.

What about the GI50 (UACC-257 melanoma) of the same compound?
The GI50 was 112 nM and 711 nM.

And the TGI (UACC-257 melanoma)?
The TGI was 94900 nM and > 10000 nM.

What about the GI50 (UACC-62 melanoma) of the same compound?
The GI50 was 40.8 nM.

And the TGI (UACC-62 melanoma)?
Its TGI is greater than 100000 nM.

What about the GI50 (UO-31 renal) of the same compound?
Its GI50 is 82.1 nM and 200 nM.

And the TGI (UO-31 renal)?
Its TGI is greater than 100000 nM.
